Consider one compound from EPA's ToxValDB 9.5 (doi:10.2903/j.efsa.2009.1341).

Values after ≈ are worked out from the molar mass of the structure shown. Where only a bound is given, the exact number is not on record here.

One data set concerns Rattus norvegicus. As to conditions: for LD50: acute.
Another data set concerns Mus musculus. As to conditions: chronic; duration: 2 years; inhalation; histopathology: nonneoplastic.
The test system of the next data set is Daphnia magna. As to conditions: chronic/long-term; duration: 21 days; mortality.
For the next data set, the system named is Pimephales promelas. The note with it: chronic/long-term; duration: 33 days; growth.
A further data set has as its system Cyprinodon variegatus. As to conditions: acute; duration: 96 hours; mortality.
Another data set relates to Apis mellifera. The note with it: acute; duration: 48 hours; inhalation; unspecified; mortality.
The subject of a further data set is Canidae. The note with it: short-term; duration: 2 weeks; Dog Other.

As a reminder, the NOAEL is the highest dose or exposure tested at which no adverse effect was seen.

`ClC=CCCl` [1,3-Dichloropropene]: the LD50 with Rattus norvegicus (inhalation, mortality) amounted to 2.7 mg/L; in the data set on Rattus norvegicus (oral, mortality), 130 mg/kg. Besides, the NOAEL is 2.5 mg/kg-day in the data set on Rattus norvegicus (chronic, duration: 2 years, oral, diet, histopathology: neoplastic); 2.5 mg/kg-day in the data set on Rattus norvegicus (chronic, oral, mortality); less than 0.0908 mg/L with Rattus norvegicus (reproduction developmental, inhalation, reproduction); 9.72 mg/kg-day in the data set with Rattus norvegicus (subchronic, duration: 13 weeks, inhalation, histopathology: nonneoplastic); 5 mg/kg-day in the data set with Rattus norvegicus (subchronic, duration: 90 days, oral, mortality); 1.1 mg/kg-day in the data set on Mus musculus. The compound further displayed a no observed adverse effect level (NOAEL) with Canidae of 20 mg/kg-day. The LC50 with Tagia sp. (acute, duration: 14 days, mortality) was found to be 55.6 mg/kg; with Cyprinodon variegatus, 0.87 µg/mL (≈ 7.84 µM). For the same compound, the NOEC with Tagia sp. (chronic/long-term, duration: 56 days, reproduction) was found to be 770 mg/kg; in the data set on Daphnia magna, 0.0701 mg/L; with Pimephales promelas it was 0.032 mg/L; in the data set with Apis mellifera, 115 mg/m3.
